Results from ChEMBL document CHEMBL3853300, “Synthesis of α-santonin derived acetyl santonous acid triazole derivatives and their bioevaluation for T and B-cell proliferation” (Eur J Med Chem, 2016).

Tests used:
[1] = species on record: Mus musculus; assay: Cytotoxicity against Balb/c mouse B cells assessed as decrease in cell viability at 100 uM after 48 hrs by MTT assay; assay type: toxicity, cell-based
[2] = species on record: Mus musculus; assay: Cytotoxicity against Balb/c mouse B cells assessed as decrease in cell viability at 10 uM after 48 hrs by MTT assay; assay type: toxicity, cell-based
[3] = species on record: Mus musculus; assay: Cytotoxicity against Balb/c mouse B cells assessed as decrease in cell viability at 1 uM after 48 hrs by MTT assay; assay type: toxicity, cell-based
[4] = species on record: Mus musculus; assay: Cytotoxicity against Balb/c mouse T cells assessed as decrease in cell viability at 100 uM after 48 hrs by MTT assay; assay type: toxicity, cell-based
[5] = species on record: Mus musculus; assay: Cytotoxicity against Balb/c mouse T cells assessed as decrease in cell viability at 10 uM after 48 hrs by MTT assay; assay type: toxicity, cell-based
[6] = species on record: Mus musculus; assay: Cytotoxicity against Balb/c mouse T cells assessed as decrease in cell viability at 1 uM after 48 hrs by MTT assay; assay type: toxicity, cell-based
[7] = Immunosuppressive activity in Balb/c mouse T cells assessed as inhibition of ConA-induced cell proliferation at 100 uM after 48 hrs by MTT assay relative to control; assay type: functional
[8] = Immunosuppressive activity in Balb/c mouse B cells assessed as inhibition of LPS-induced cell proliferation at 100 uM after 48 hrs by MTT assay relative to control; assay type: functional
[9] = Immunosuppressive activity in Balb/c mouse B cells assessed as inhibition of LPS-induced cell proliferation at 10 uM after 48 hrs by MTT assay relative to control; assay type: functional
[10] = Immunosuppressive activity in Balb/c mouse B cells assessed as inhibition of LPS-induced cell proliferation at 1 uM after 48 hrs by MTT assay relative to control; assay type: functional
[11] = tested on: T-cell; assay: Immunosuppressive activity in Balb/c mouse T cells assessed as inhibition of ConA-induced cell proliferation after 48 hrs by MTT assay relative to control; assay type: functional, cell-based
[12] = Immunosuppressive activity in Balb/c mouse T cells assessed as inhibition of ConA-induced cell proliferation at 1 uM after 48 hrs by MTT assay relative to control; assay type: functional
[13] = Immunostimulatory activity in Balb/c mouse T cells assessed as induction of ConA-induced cell proliferation at 10 uM after 48 hrs by MTT assay relative to control; assay type: cell-based
[14] = tested on: B; assay: Immunosuppressive activity in Balb/c mouse B cells assessed as inhibition of LPS-induced cell proliferation after 48 hrs by MTT assay relative to control; assay type: functional, cell-based
[15] = Immunosuppressive activity in Balb/c mouse T cells assessed as inhibition of ConA-induced cell proliferation at 10 uM after 48 hrs by MTT assay relative to control; assay type: functional
[16] = Immunostimulatory activity in Balb/c mouse T cells assessed as induction of ConA-induced cell proliferation at 1 uM after 48 hrs by MTT assay relative to control; assay type: cell-based
[17] = Immunostimulatory activity in Balb/c mouse B cells assessed as induction of LPS-induced cell proliferation at 1 uM after 48 hrs by MTT assay relative to control; assay type: cell-based

SMILES | Activity [1] | Activity [2] | Activity [3] | Activity [4] | Activity [5] | Activity [6] | inhibition at 100 µM [7] [%] | inhibition at 100 µM [8] [%] | inhibition at 10 µM [9] [%] | inhibition at 1 µM [10] [%] | inhibition [11] | inhibition at 1 µM [12] [%] | Activity [13] [%] | inhibition [14] | inhibition at 10 µM [15] [%] | Activity [16] [%] | Activity [17] [%]
CC1=C2[C@H]3OC(=O)[C@@H](C)[C@@H]3CC[C@@]2(C)C=CC1=O [SANTONIN] | Non-Toxic | Non-Toxic | Non-Toxic | Non-Toxic | Non-Toxic | Non-Toxic | 6.09 | 37.6 | 26.8 | 21.1 | Dose-dependent effect | 39.4 | 3.66 | Dose-dependent effect |  |  | 
CC(=O)Oc1cc(C)c2c(c1C)C[C@H]([C@@H](C)C(=O)OCc1cn(-c3ccc(O)cc3C)nn1)CC2 | Toxic | Non-Toxic | Non-Toxic | Toxic | Non-Toxic | Non-Toxic | 54.7 | 79.7 | 77.1 | 68.8 | Dose-dependent effect | 22.7 | 1.33 | Dose-dependent effect |  |  | 
CC(=O)Oc1cc(C)c2c(c1C)C[C@H]([C@@H](C)C(=O)OCc1cn(-c3ccccc3C#N)nn1)CC2 | Toxic | Toxic | Toxic | Toxic | Toxic | Toxic | 6.48 | 25.1 | 26.3 | 40 | Dose-dependent effect |  |  | Dose-dependent effect | 4.62 | 12.96 | 
CC(=O)Oc1cc(C)c2c(c1C)C[C@H]([C@@H](C)C(=O)OCc1cn(Cc3ccc(Br)cc3)nn1)CC2 | Toxic | Toxic | Non-Toxic | Toxic | Toxic | Non-Toxic | 37.4 | 38.7 | 34.1 |  | Dose-dependent effect |  |  | Dose-dependent effect | 33.9 | 14.15 | 19.71
CC(=O)Oc1cc(C)c2c(c1C)C[C@H]([C@@H](C)C(=O)OCc1cn(-c3ccc4c(c3)OCO4)nn1)CC2 | Non-Toxic | Toxic | Non-Toxic | Non-Toxic | Toxic | Non-Toxic | 32.4 | 22.3 | 33.9 | 40.6 | Dose-dependent effect | 27.8 | 16.66 | Dose-dependent effect |  |  | 
CC(=O)Oc1cc(C)c2c(c1C)C[C@H]([C@@H](C)C(=O)OCc1cn(-c3ccc(C#N)cc3)nn1)CC2 | Toxic | Toxic | Toxic | Toxic | Toxic | Toxic | 59.8 | 67.9 | 80.9 | 76.3 | Dose-dependent effect | 35.6 |  | Dose-dependent effect | 52.3 |  | 
CCCCCn1cc(COC(=O)[C@H](C)[C@@H]2CCc3c(C)cc(OC(C)=O)c(C)c3C2)nn1 | Toxic | Toxic | Toxic | Toxic | Toxic | Toxic | 30.6 | 43.1 | 41.9 | 42.4 | Dose-dependent effect | 15.6 |  | Dose-dependent effect | 27.6 |  | 
CC(=O)Oc1cc(C)c2c(c1C)C[C@H]([C@@H](C)C(=O)OCc1cn(-c3ccc(C(=O)c4ccccc4)cc3)nn1)CC2 | Toxic | Toxic | Non-Toxic | Toxic | Toxic | Non-Toxic | 20 | 81.2 | 75 | 69.3 | Dose-dependent effect | 5.33 |  | Dose-dependent effect | 28 |  | 
CC(=O)Oc1cc(C)c2c(c1C)C[C@H]([C@@H](C)C(=O)OCc1cn(Cc3ccccc3)nn1)CC2 | Toxic | Non-Toxic | Non-Toxic | Toxic | Non-Toxic | Non-Toxic | 44 | 32.3 | 33.5 | 48.6 | Dose-dependent effect | 33 |  | Dose-dependent effect | 39.2 |  | 
COc1ccc(-n2cc(COC(=O)[C@H](C)[C@@H]3CCc4c(C)cc(OC(C)=O)c(C)c4C3)nn2)cc1 | Toxic | Non-Toxic | Toxic | Toxic | Non-Toxic | Toxic | 30.1 | 15.4 | 36.8 | 42.3 | Dose-dependent effect | 33.8 |  | Dose-dependent effect | 36 |  | 
CC(=O)Oc1cc(C)c2c(c1C)C[C@H]([C@@H](C)C(=O)OCc1cn(-c3ccc(CO)cc3)nn1)CC2 | Toxic | Toxic | Toxic | Toxic | Toxic | Toxic | 5.88 | 11.5 | 35.7 | 40 | Dose-dependent effect | 40 |  | Dose-dependent effect | 37.5 |  | 
CC(=O)Oc1cc(C)c2c(c1C)C[C@H]([C@@H](C)C(=O)OCc1cn(-c3cccc([N+](=O)[O-])c3)nn1)CC2 | Non-Toxic | Toxic | Toxic | Non-Toxic | Toxic | Toxic | 10.2 | 24.6 | 26.9 | 29.1 | Dose-dependent effect | 45.4 |  | Dose-dependent effect | 30.6 |  | 
CCCCn1cc(COC(=O)[C@H](C)[C@@H]2CCc3c(C)cc(OC(C)=O)c(C)c3C2)nn1 | Toxic | Toxic | Non-Toxic | Toxic | Toxic | Non-Toxic | 41.3 | 44.2 | 29.9 | 31.2 | Dose-dependent effect | 21.4 |  | Dose-dependent effect | 24 |  | 
CC(=O)Oc1cc(C)c2c(c1C)C[C@H]([C@@H](C)C(=O)OCc1cn(-c3ccc(Cl)nc3)nn1)CC2 | Non-Toxic | Toxic | Non-Toxic | Non-Toxic | Toxic | Non-Toxic | 1.85 | 33.7 | 24 |  | Dose-dependent effect | 17.6 |  | Dose-dependent effect | 17.6 |  | 9.71
